Measured values: US9938262B2, “Benzamides” (Merck Patent GmbH, priority 2011, dated 2018)

target: T1, FSHR (Homo sapiens, UniProt P23945); assay: EC50 of cyclic AMP production in CHO FSHR cells + EC20 FSH (Assay A); format: cell-based; details: 1 h; 5 μM; effect relative to maximum response of the FSH standard; Table 1
T1 construct: expressed in transfected cells; host or cells: CHO (Cho-FSHR-LUC-1-1-43)
Summary of the method: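 cAMP HTRF ratio (665/620 nm) read after 1 h, 37 °C exposure of CHO-FSHR cells to compound in presence of EC20 FSH ([…]) and IBMX 200 μM. Responses given relative to FSH standard maximum; EC50 derived.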

T1 sequence (P23945 18-695): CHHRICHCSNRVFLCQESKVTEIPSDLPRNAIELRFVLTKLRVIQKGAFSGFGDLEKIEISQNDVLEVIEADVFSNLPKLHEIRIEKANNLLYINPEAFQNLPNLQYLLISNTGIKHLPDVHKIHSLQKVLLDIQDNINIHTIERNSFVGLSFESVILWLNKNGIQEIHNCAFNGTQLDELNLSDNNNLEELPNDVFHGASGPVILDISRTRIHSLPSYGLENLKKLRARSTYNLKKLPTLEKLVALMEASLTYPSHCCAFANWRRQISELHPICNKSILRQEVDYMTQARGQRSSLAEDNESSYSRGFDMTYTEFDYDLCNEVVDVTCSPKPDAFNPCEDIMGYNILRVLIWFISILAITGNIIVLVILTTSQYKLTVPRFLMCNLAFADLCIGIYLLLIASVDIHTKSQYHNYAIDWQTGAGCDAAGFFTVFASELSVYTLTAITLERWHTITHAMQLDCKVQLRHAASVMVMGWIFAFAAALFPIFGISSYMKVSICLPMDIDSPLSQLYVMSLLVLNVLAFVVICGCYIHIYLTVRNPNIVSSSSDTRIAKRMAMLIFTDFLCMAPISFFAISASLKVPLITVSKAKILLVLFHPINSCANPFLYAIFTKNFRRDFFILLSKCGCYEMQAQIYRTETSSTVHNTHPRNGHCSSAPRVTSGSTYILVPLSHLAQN
T1 sequence (P01215 25-116 partner): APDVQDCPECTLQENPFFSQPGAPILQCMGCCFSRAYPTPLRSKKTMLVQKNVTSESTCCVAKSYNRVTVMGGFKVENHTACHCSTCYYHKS
T1 sequence (P01225 19-129 partner): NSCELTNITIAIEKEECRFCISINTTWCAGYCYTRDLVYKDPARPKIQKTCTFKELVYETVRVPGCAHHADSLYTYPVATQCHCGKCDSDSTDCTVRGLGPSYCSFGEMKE

activation at 5 µM | Compound
20% | COc1ccccc1N1CCN(c2ccc(C(=O)NCCCN3CCCC3=O)cc2NC(=O)c2ccco2)CC1 [Compound 166]
48% | Cc1ccccc1N1CCN(c2ccc(C(=O)NCc3ccc(C(F)(F)F)cc3)cc2NC(=O)c2ccco2)CC1 [Compound 94, Furan-2-carboxylic acid [2-(4-o-tolyl-piperazin-1-yl)-5-(4-trifluoromethyl-benzylcarbamoyl)-phenyl]-amide]
10% | Cc1ccccc1N1CCN(c2ccc(C(=O)NCCCN3CCCC3=O)cc2NS(=O)(=O)c2ccco2)CC1 [Compound 46]
22% | Cc1ccc(C(=O)Nc2cc(C(=O)NCCCN3CCCC3=O)ccc2N2CCN(Cc3ccccc3Cl)[C@@H](C)C2)o1 [Compound 255]

same assay, conditions: CHO FSHR cells + EC20 FSH; Table 1; read-out: Assay A EC50 of cyclic AMP production

EC50 | Compound
1000 to 10000 nM | Cc1ccc(C(=O)Nc2cc(C(=O)NCCN3CCS(=O)(=O)CC3)ccc2N2CCN(c3ccccc3C)CC2)o1 [Compound 174, 5-Methyl-furan-2-carboxylic acid [5-[2-(1,1-dioxo-1 lambda*6*-thiomorpholin-4-yl)ethylcarbamoyl]-2-(4-o-tolyl-piperazin-1-yl)-phenyl]-amide]
100 to 1000 nM | Cc1cc(C(=O)Nc2cc(C(=O)NCCCN3CCCC3=O)ccc2N2CCN(c3ccccc3C)CC2)c(C)o1 [Compound 14]
100 to 1000 nM | Cc1ccccc1N1CCN(c2ccc(C(=O)NCCCn3cccc3)cc2NC(=O)c2ccco2)CC1 [Compound 148]
100 to 1000 nM | C=CC(=O)NCCNC(=O)c1ccc(N2CCN(c3ccccc3C)CC2)c(NC(=O)c2ccco2)c1 [Compound 225]
100 to 1000 nM | Cc1ccccc1N1CCN(c2ccc(C(=O)NCc3ccc(Cl)cc3)cc2NC(=O)c2ccco2)CC1 [Compound 131, Furan-2-carboxylic acid [5-(4-chloro-benzylcarbamoyl)-2-(4-o-tolyl-piperazin-1-yl)-phenyl]-amide]
100 to 1000 nM | COc1cccc(CNC(=O)c2ccc(N3CCN(c4ccccc4C)CC3)c(NC(=O)c3ccco3)c2)c1 [Compound 93, Furan-2-carboxylic acid [5-(3-methoxy-benzylcarbamoyl)-2-(4-o-tolyl-piperazin-1-yl)-phenyl]-amide]
100 to 1000 nM | Cc1ccccc1N1CCN(c2ccc(C(=O)NCCCN)cc2NC(=O)c2ccco2)CC1 [Compound 192]

The remaining lines, values behind:

Compound | EC50
Cc1ccccc1N1CCN(c2ccc(C(=O)NCCCN3CCCC3=O)cc2NC(=O)c2cnc(Cl)s2)CC1 [Compound 197] | 1000 to 10000 nM
Cc1ccccc1N1CCN(c2ccc(C(=O)NCCCN3CCCC3=O)cc2NC(=O)c2nc(Br)cs2)CC1 [Compound 178] | 1000 to 10000 nM
Cc1ccccc1N1CCN(c2ccc(C(=O)NCCC(=O)N3CCCC3)cc2NC(=O)c2coc(C3CC3)n2)CC1 [Compound 234] | 1000 to 10000 nM
Cc1ccccc1N1CCN(c2ccc(C(=O)NCCCN3CCCC3=O)cc2NC(=O)c2cccc(O)c2)CC1 [Compound 146] | > 10000 nM
Cc1ccc(C(=O)Nc2cc(C(=O)NCCCN3CCCC3=O)ccc2N2CCN(c3ccccc3)CC2)o1 [Compound 167, 5-Methyl-furan-2-carboxylic acid [5-[3-(2-oxo-pyrrolidin-1-yl)-propylcarbamoyl]-2-(4-phenyl-piperazin-1-yl)-phenyl]-amide] | 1000 to 10000 nM
CC(=O)Nc1ccc(C(=O)Nc2cc(C(=O)NCCCN3CCCC3=O)ccc2N2CCN(c3ccccc3C)CC2)o1 [Compound 164] | 1000 to 10000 nM
Cc1ccccc1N1CCN(c2ccc(C(=O)NCCC(=O)N3CCCC3)cc2NC(=O)c2ccco2)CC1 [Compound 120] | 100 to 1000 nM
Cc1nc(C(=O)Nc2cc(C(=O)NCCCN3CCCC3=O)ccc2N2CCN(c3ccccc3C)CC2)c(C)o1 [Compound 102] | 1000 to 10000 nM
Cc1cc(C(=O)Nc2cc(C(=O)NCCCN3CCCC3=O)ccc2N2CCN(c3ccccc3C)CC2)c(C(F)(F)F)o1 [Compound 1] | 100 to 1000 nM

same assay, conditions: CHO FSHR cells + EC20 FSH; Table 2; read-out: Assay A EC50 of cyclic AMP production

EC50 | Compound
1000 to 10000 nM | Cc1ccc(CNc2cc(C(=O)NCc3cccc(CN(C)C)c3)ccc2N2CCN(c3ccccc3C)CC2)o1 [Compound 573]
100 to 1000 nM | CNCc1cccc(CNC(=O)c2ccc(N3CCN(c4ccccc4C)CC3)c(NC(=O)c3ccco3)c2)c1 [Compound 323]
100 to 1000 nM | Cc1cccc(C(=O)NCCCNC(=O)c2ccc(N3CCN(c4ccccc4C)CC3)c(NC(=O)c3coc(C4CC4)n3)c2)n1 [Compound 443]
> 10000 nM | Cc1ccccc1N1CCN(c2ccc(C(=O)NCc3cccc(CN(C)C(=O)OC(C)(C)C)c3)cc2NC(=O)c2ccco2)CC1 [Compound 326]
100 to 1000 nM | Cc1ccc(C(=O)Nc2cc(C(=O)NCCCN3CCCC3=O)ccc2N2CCN(c3cccc(C)c3C)CC2)o1 [Compound 521]
100 to 1000 nM | Cc1ccccc1N1CCN(c2ccc(C(=O)NCCCN3CCCC3=O)cc2NCc2cccc3cccnc23)CC1 [Compound 429]
100 to 1000 nM | Cc1ccccc1N1CCN(c2ccc(C(=O)NCc3cccc(CN(C)C)n3)cc2NC(=O)c2coc(C3CC3)n2)CC1 [Compound 465]
1000 to 10000 nM | Cc1ccccc1N1CCN(c2ccc(C(N)=O)cc2NC(=O)c2ccco2)CC1 [Compound 283]
< 100 nM | CCN(C)Cc1cccc(CNC(=O)c2ccc(N3CCN(c4ccccc4C)CC3)c(NC(=O)c3ccco3)c2)c1 [Compound 478]
1000 to 10000 nM | Cc1ccc(C(=O)Nc2cc(C(=O)NCCCO)ccc2N2CCN(c3ccccc3C)CC2)o1 [Compound 303]
100 to 1000 nM | COc1ccccc1CNC(=O)c1ccc(N2CCN(c3ccccc3C)CC2)c(NC(=O)c2coc(C3CC3)n2)c1 [Compound 277]
100 to 1000 nM | CCNC(=O)NCCCNC(=O)c1ccc(N2CCN(c3ccccc3C)CC2)c(NC(=O)c2ccc(C)o2)c1 [Compound 270]
100 to 1000 nM | Cc1ccccc1N1CCN(c2ccc(C(=O)NCc3cccc(CN4CCCC4)c3)cc2NC(=O)c2ccco2)CC1 [Compound 454]
100 to 1000 nM | Cc1ccccc1N1CCN(c2ccc(C(=O)NCc3cccc(CO)c3)cc2NC(=O)c2coc(C3CC3)n2)CC1 [Compound 574]
100 to 1000 nM | COc1ccc(CNC(=O)c2ccc(N3CCN(c4ccccc4C)CC3)c(NC(=O)c3coc(C4CC4)n3)c2)cc1OC [Compound 290]
1000 to 10000 nM | CCN(CC)Cc1cccc(CNC(=O)c2ccc(N3CCN(c4ccccc4C)CC3)c(NC(=O)c3ccc(C)o3)c2)c1 [Compound 543]
> 10000 nM | Cc1ccccc1N1CCN(c2ccc(C(=O)NCc3cccc(CN(C)C)c3)cc2NS(C)(=O)=O)CC1 [Compound 563]

The next lines start with the compound.

Compound | EC50
Cc1ccc(C(=O)Nc2cc(C(=O)N3CCC4(COC4)C3)ccc2N2CCN(c3ccccc3C)CC2)o1 [Compound 593] | 1000 to 10000 nM
Cc1ccccc1N1CCN(c2ccc(C(=O)NC[C@@H](O)CO)cc2NC(=O)c2coc(C3CC3)n2)CC1 [Compound 567] | 100 to 1000 nM
Cc1ccccc1N1CCN(c2ccc(C(=O)Nc3cccc(N4CCCC4=O)c3)cc2NC(=O)c2coc(C3CC3)n2)CC1 [Compound 481] | 100 to 1000 nM
Cc1ccccc1N1CCN(c2ccc(C(=O)NCCCNC(=O)C3CC3)cc2NC(=O)c2coc(C3CC3)n2)CC1 [Compound 447] | 100 to 1000 nM
Cc1cccnc1N1CCN(c2ccc(C(=O)NCCCN3CCCC3=O)cc2NC(=O)c2coc(C3CC3)n2)CC1 [Compound 439] | < 100 nM
O=C(NCCCN1CCCC1=O)c1ccc(N2CCN(c3ccccc3F)CC2)c(NC(=O)c2coc(C3CC3)n2)c1 [Compound 402] | 100 to 1000 nM
Cc1ccccc1N1CCN(c2ccc(C(=O)NCCCn3cccn3)cc2NC(=O)c2coc(C3CC3)n2)CC1 [Compound 275] | 100 to 1000 nM
Cc1ccccc1N1CCN(c2ccc(C(=O)NCCCC3CCCC3)cc2NC(=O)c2ccco2)CC1 [Compound 375] | 100 to 1000 nM
Cc1ccccc1N(C)C1CCN(c2ccc(C(=O)NCCCN3CCCC3=O)cc2NC(=O)c2coc(C3CC3)n2)CC1 [Compound 405] | 100 to 1000 nM
Cc1ccccc1N1CCN(c2ccc(C(=O)NCCN3C(=O)CCC3=O)cc2NC(=O)c2coc(C3CC3)n2)CC1 [Compound 347] | > 10000 nM
Cc1ccccc1N1CCN(c2ccc(C(=O)NCCCN3CCOC3=O)cc2NC(=O)c2coc(C3CC3)n2)CC1 [Compound 321] | 100 to 1000 nM
Cc1ccc(C(=O)Nc2cc(C(=O)NCCCN3CCCC3=O)ccc2N2CCN(c3ncncc3C)CC2)o1 [Compound 419] | > 10000 nM
Cc1ccc(C(=O)Nc2cc(C(=O)NCCCN3CCCC3=O)ccc2N2CCN(c3ccccc3C#N)CC2)o1 [Compound 522] | 1000 to 10000 nM
Cc1cccc(C)c1N1CCN(c2ccc(C(=O)NCCCN3CCCC3=O)cc2NC(=O)c2coc(C3CC3)n2)CC1 [Compound 299] | 1000 to 10000 nM
Cc1ccccc1N1CCN(c2ccc(C(=O)NCC(O)CN3CCCC3=O)cc2NC(=O)c2ccco2)CC1 (stereo not drawn) [Compound 467] | < 100 nM
Cc1ccccc1N1CCN(c2ccc(C(=O)NCCCNC(=O)NC3CCCCC3)cc2NC(=O)c2ccco2)CC1 [Compound 496] | 100 to 1000 nM
Cc1ccccc1N1CCN(c2ccc(C(=O)NCCCC(=O)NCCO)cc2NC(=O)c2coc(C3CC3)n2)CC1 [Compound 515] | < 100 nM
Cc1ccccc1N1CCN(c2ccc(C(=O)NCCCN3C(=O)OCC3(C)C)cc2NC(=O)c2coc(C3CC3)n2)CC1 [Compound 358] | 100 to 1000 nM
Cc1cncnc1N1CCN(c2ccc(C(=O)NCCCN3CCCC3=O)cc2NC(=O)c2ccco2)CC1 [Compound 420] | > 10000 nM
Cc1ccccc1N1CCN(c2ccc(C(=O)NCCNC3CCS(=O)(=O)C3)cc2NC(=O)c2ccco2)CC1 (stereo not drawn) [Compound 387] | 100 to 1000 nM
